According to patent US10913736B2 (UNIVERSITY OF WASHINGTON, priority 2014, dated 2021):
Where “and” joins values, the source holds several entries; their conditions need not be identical. Identical values can stand only once.

Key:
MetRS (T. brucei) = MetRS (T. brucei) (Trypanosoma brucei brucei, UniProt Q38C91); experiment: MetRS (T. brucei) ATP depletion assay using Kinase-Glo; format: biochemical
MetRS (S. aureus) = MetRS (S. aureus) (Staphylococcus aureus, UniProt Q5HII6); experiment: biochemical; details: ATP depletion, Kinase-Glo; read-out: H) MetRS (S. aureus) ATP depletion assay using Kinase-Glo with modified cpd dilution method, IC50
Chain of MetRS (S. aureus) (Q5HII6 whole entry): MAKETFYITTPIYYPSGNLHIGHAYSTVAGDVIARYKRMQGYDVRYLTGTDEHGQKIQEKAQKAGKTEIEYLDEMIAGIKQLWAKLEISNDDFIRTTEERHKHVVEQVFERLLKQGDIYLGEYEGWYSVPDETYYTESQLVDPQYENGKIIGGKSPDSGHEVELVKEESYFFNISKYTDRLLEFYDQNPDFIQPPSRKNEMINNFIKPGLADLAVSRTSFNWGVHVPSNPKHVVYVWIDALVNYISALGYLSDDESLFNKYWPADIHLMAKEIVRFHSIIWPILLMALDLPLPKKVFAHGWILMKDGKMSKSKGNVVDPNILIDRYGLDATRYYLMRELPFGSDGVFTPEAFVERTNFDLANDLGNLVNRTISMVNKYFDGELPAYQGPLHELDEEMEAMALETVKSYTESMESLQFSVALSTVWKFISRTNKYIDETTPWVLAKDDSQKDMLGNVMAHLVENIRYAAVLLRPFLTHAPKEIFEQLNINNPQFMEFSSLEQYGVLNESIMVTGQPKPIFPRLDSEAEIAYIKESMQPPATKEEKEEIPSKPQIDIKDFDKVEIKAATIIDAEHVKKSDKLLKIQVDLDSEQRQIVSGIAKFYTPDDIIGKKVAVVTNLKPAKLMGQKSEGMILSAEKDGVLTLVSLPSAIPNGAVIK

T. brucei = experiment: Growth inhibition assay of T. brucei cell cultures (Alamar Blue, 48 h); format: cell-based; details: Trypanosoma brucei; read-out: B) T. brucei EC50

Chain of MetRS (T. brucei) (Q38C91 entry or part of it): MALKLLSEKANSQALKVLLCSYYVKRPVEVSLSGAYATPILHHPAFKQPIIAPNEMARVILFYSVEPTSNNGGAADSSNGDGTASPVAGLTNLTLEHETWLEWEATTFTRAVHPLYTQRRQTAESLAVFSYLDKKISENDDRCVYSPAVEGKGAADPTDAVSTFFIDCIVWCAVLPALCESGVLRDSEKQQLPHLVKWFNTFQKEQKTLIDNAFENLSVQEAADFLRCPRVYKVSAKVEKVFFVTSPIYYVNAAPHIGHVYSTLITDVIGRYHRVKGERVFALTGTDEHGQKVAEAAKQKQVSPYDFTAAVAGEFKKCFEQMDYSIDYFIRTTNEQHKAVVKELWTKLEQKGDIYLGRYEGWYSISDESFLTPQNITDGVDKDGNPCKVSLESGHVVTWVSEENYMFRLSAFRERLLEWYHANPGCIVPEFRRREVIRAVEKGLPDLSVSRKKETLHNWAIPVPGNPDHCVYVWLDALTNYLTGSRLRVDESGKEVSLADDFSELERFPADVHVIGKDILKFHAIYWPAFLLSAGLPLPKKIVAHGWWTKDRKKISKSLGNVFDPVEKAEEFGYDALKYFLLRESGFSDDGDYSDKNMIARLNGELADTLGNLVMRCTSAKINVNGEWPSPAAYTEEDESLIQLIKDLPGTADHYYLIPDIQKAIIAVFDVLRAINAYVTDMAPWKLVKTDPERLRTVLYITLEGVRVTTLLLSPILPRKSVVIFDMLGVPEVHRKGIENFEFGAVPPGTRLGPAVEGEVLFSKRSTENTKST

| Structure (SMILES) | IC50 (MetRS (T. brucei)) | IC50 (MetRS (S. aureus)) | EC50 (T. brucei) |
| --- | --- | --- | --- |
| COc1ccc(Oc2ccnc(NCc3nc4ccc(F)nc4[nH]3)c2)c(Cl)c1 [Compound 1960, 4-(2-chloro-4-methoxyphenoxy)-N-({5-fluoro-3H-imidazo[4,5-b]pyridin-2-yl}methyl)pyridin-2-amine] | 0.021 µM | 0.012 µM | – |
| CN(CCN(Cc1cc(Cl)cc(Cl)c1)C(N)=O)c1nc2ccc(Cl)nc2[nH]1 [Compound 1972, 1-(3,5-dichlorobenzyl)-1-(2-(5-chloro-N-methyl-1H-imidazo[4,5-b]pyridin-2-ylamino)ethyl)urea] | 0.027 µM | 0.14 µM | – |
| CN(CCN(Cc1cc(Cl)cc(Cl)c1)C(=O)CN)c1nc2nc(Cl)ccc2[nH]1 [Compound 1957, 2-amino-N-[2-({5-chloro-1H-imidazo[4,5-b]pyridin-2-yl}(methyl)amino)ethyl]-N-[(3,5-dichlorophenyl)methyl]acetamide] | 0.011 µM | 0.424 µM | – |
| C=CCOc1c(Cl)cc(Cl)cc1CN[C@H]1CCCN(c2nc3nc(Cl)ccc3[nH]2)C1 [Compound 1928, (S)—N-(2-(allyloxy)-3,5-dichlorobenzyl)-1-(5-chloro-1H-imidazo[4,5-b]pyridin-2-yl)piperidin-3-amine] | 0.021 µM | – | 0.326 µM |
| Clc1ccc(CN[C@@H]2CCN(c3nc4ccc(Cl)nc4[nH]3)C2)c(Cl)c1 [Compound 1848, (3R)-1-{5-chloro-3H-imidazo[4,5-b]pyridin-2-yl}-N-[(2,4-dichlorophenyl}methyl]pyrrolidin-3-amine] | 0.847 µM | – | 10.6 µM |
| O=C(Cc1cc(Cl)cc(Cl)c1)N1CCCC(c2nc3c(Cl)cccc3[nH]2)C1 (stereo not drawn) [Compound 1733, 1-(3-(4-chloro-1H-benzo[d]imidazol-2-yl)piperidin-1-yl)-2-(3,5-dichlorophenyl) ethanone] | 0.926 µM | – | 8.81 µM |
| O=C(NCc1cc(Cl)cc(Cl)c1)N1CCCC(c2nc3nc(Cl)ccc3[nH]2)C1 (stereo not drawn) [Compound 1785, 3-(5-chloro-1H-imidazo[4,5-b]pyridin-2-yl)-N-(3,5-dichlorobenzyl) piperidine-1-carboxamide] | > 10 µM | – | > 20 µM |
| O=C(CCc1nc2nc(Cl)ccc2[nH]1)NCc1cc(Cl)cc(Cl)c1 [Compound 1944, 3-{5-chloro-1H-imidazo[4,5-b]pyridin-2-yl}-N-[(3,5-dichlorophenyl)methyl]propanamide] | 0.535 µM | – | 11.7 µM |
| CC(=O)N1CCC(N(C(C)=O)[C@H]2CCCN(c3nc4nc(Cl)ccc4[nH]3)C2)c2cc(Cl)cc(Cl)c21 (stereo partly drawn) [Compound 1945] | > 10 µM | – | 13.7 µM |
| Clc1cc(Cl)cc(NCC2CCCN(c3nc4nc(Cl)c(Br)cc4[nH]3)C2)c1 (stereo not drawn) [Compound 1863, N-((1-(6-bromo-5-chloro-1H-imidazo[4,5-b]pyridin-2-yl)piperidin-3-yl)methyl)-3,5-dichloroaniline] | > 10 µM | – | 3.29 µM |
| Clc1cc(Cl)cc(CN2CCC[C@H](c3nc4nc(Cl)ccc4[nH]3)C2)c1 [Compound 1868, (S)-5-chloro-2-(1-(3,5-dichlorobenzyl)piperidin-3-yl)-1H-imidazo[4,5-b]pyridine] | 0.077 µM | – | 1.08 µM |
| OC1N[C@@H](Cc2ccc(Cl)cc2Cl)C(O)N1Cc1nc2ccccc2[nH]1 (stereo partly drawn) [Compound 1906, (5S)-3-((H-benzo[d]imidazol-2-yl)methyl)-5-(2,4-dichlorobenzyl)imidazolidine-2,4-diol] | 2.94 µM | – | 6.23 µM |
| O=C(NCCc1ccc(Cl)cc1Cl)NCc1nc2ccccc2[nH]1 [Compound 1702, 1-((1H-benzo[d]imidazol-2-yl)methyl)-3-(2,4-dichlorophenethyl)urea] | 0.009 µM and 0.011 µM | – | 4.97 µM |
| Cc1ccc2nc(CC(C)NCc3cc(Cl)cc(Cl)c3)[nH]c2c1 (stereo not drawn) [Compound 1820, [(3,5-dichlorophenyl)methyl][1-(6-methyl-1H-1,3-benzodiazol-2-yl)propan-2-yl]amine] | 0.29 µM | – | 3.14 µM |
| O=C(Cc1cc(Cl)cc(Cl)c1)NC1CCCC(c2nc3nc(Cl)ccc3[nH]2)C1 (stereo not drawn) [Compound 1786, N-(3-(5-chloro-1H-imidazo[4,5-b]pyridin-2-yl)cyclohexyl)-2-(3,5-dichlorophenyl)acetamide] | 0.31 µM | – | 5.67 µM |
| CCN(Cc1cc(Cl)cc(Cl)c1)[C@H]1CCCN(c2nc3ccc(Cl)nc3[nH]2)C1 [Compound 1955, (S)-1-(5-chloro-1H-imidazo[4,5-b]pyridin-2-yl)-N-(3,5-dichlorobenzyl)-N-ethylpiperidin-3-amine] | 0.286 µM | – | 1.74 µM |
| O=C(Cc1ccc(Cl)cc1Cl)NCc1nc2ncc(Cl)cc2[nH]1 [Compound 1878, N-({6-chloro-1H-imidazo[4,5-b]pyridin-2-yl}methyl)-2-(2,4-dichlorophenyl)acetamide] | 0.195 µM | – | 7.52 µM |
| Clc1ccc(CN2CCC[C@H](c3nc4cc(Cl)ccc4[nH]3)C2)c(Cl)c1 [Compound 1837, (S)-5-chloro-2-(1-(2,4-dichlorobenzyl)piperidin-3-yl)-1H-benzo[d]imidazole] | 0.119 µM | – | 1.34 µM |

| Structure (SMILES) | IC50 (MetRS (T. brucei)) | IC50 (MetRS (S. aureus)) | EC50 (T. brucei) |
| --- | --- | --- | --- |
| O=C(COc1ccc(Cl)cc1Cl)NCCc1nc2ccccc2[nH]1 [Compound 1675, N-[2-(1H-1,3-benzodiazol-2-yl)ethyl]-2-(2,4-dichlorophenoxy)acetamide] | 8.23 µM | – | > 20 µM |
| O=C(Cc1cc(Cl)cc(Cl)c1)N1CCOC(c2nc3nc(Cl)ccc3[nH]2)C1 (stereo not drawn) [Compound 1790, 1-(2-(5-chloro-1H-imidazo[4,5-b]pyridin-2-yl)morpholino)-2-(3,5-dichlorophenyl)ethanone] | 0.105 µM | – | 2.7 µM |
| Clc1cc(Cl)cc(CNC2CCCC(c3nc4cc(Cl)cnc4[nH]3)C2)c1 (stereo not drawn) [Compound 1841, 3-(6-chloro-3H-imidazo[4,5-b]pyridin-2-yl)-N-(3,5-dichlorobenzyl) cyclohexanamine] | 6.3 µM | – | 3.69 µM |
| Clc1cc(Cl)cc(CN2CCN(c3nc4nc(Cl)ccc4[nH]3)CC2)c1 [Compound 1866, 5-chloro-2-(4-(3,5-dichlorobenzyl)piperazin-1-yl)-1H-imidazo[4,5-b]pyridine] | > 10 µM | – | > 20 µM |
| Clc1cc(Cl)cc(CNCC2CCN2c2nc3nc(Cl)ccc3[nH]2)c1 (stereo not drawn) [Compound 1915, 1-(1-(5-chloro-1H-imidazo[4,5-b]pyridin-2-yl)azetidin-2-yl)-N-(3,5-dichlorobenzyl)methanamine] | 0.17 µM | – | 3.1 µM |
| Clc1cc(Cl)c(Cl)c(CN[C@H]2CCCN(c3nc4nc(Cl)c(Br)cc4[nH]3)C2)c1 [Compound 1905, (S)-1-(6-bromo-5-chloro-1H-imidazo[4,5-b]pyridin-2-yl)-N-(2,3,5-trichlorobenzyl)piperidin-3-amine] | 4.31 µM | – | > 20 µM |
| Fc1ccc2[nH]c(C3CCCC(NCc4cc(Cl)cc(Cl)c4)C3)nc2n1 (stereo not drawn) [Compound 1800, N-(3,5-dichlorobenzyl)-3-(5-fluoro-1H-imidazo[4,5-b]pyridin-2-yl) cyclohexanamine] | 0.663 µM | – | 0.961 µM |
| CC(=O)N(Cc1cc(Cl)cc(Cl)c1)C1CCCC(c2nc3cc(Cl)cnc3[nH]2)C1 (stereo not drawn) [Compound 1842, N-(3-(6-chloro-3H-imidazo[4,5-b]pyridin-2-yl)cyclohexyl)-N-(3,5-dichlorobenzyl)acetamide] | > 10 µM | – | 8.58 µM |
| O=C(Cc1ccc(Cl)cc1Cl)NCc1nc2ccc(Cl)cc2[nH]1 [Compound 1852, N-[(6-chloro-1H-1,3-benzodiazol-2-yl)methyl]-2-(2,4-dichlorophenyl)acetamide] | 0.075 µM | – | 5.54 µM |
| CC(=O)N(Cc1cc(Cl)cc(Cl)c1)N1CCCC(c2nc3cc(F)ccc3[nH]2)C1 (stereo not drawn) [Compound 1833, N-[(3,5-dichlorophenyl)methyl]-N-[3-(5-fluoro-1H-1,3-benzodiazol-2-yl)piperidin-1-yl]acetamide] | > 10 µM | – | > 20 µM |
| Clc1ccc(CCNCc2nc3nc(Cl)ccc3[nH]2)c(Cl)c1 [Compound 1892, ({5-chloro-3H-imidazo[4,5-b]pyridin-2-yl}methyl)[2-(2,4-dichlorophenyl)ethyl]amine] | 0.033 µM | – | 1.55 µM |
| O=C1CN(Cc2ccccc2Cl)CCN1Cc1nc2ccccc2[nH]1 [Compound 1735, 1-(1H-1,3-benzodiazol-2-ylmethyl)-4-[(2-chlorophenyl)methyl]piperazin-2-one] | > 10 µM | – | > 20 µM |
| Clc1cc(Cl)cc(CN2CCC[C@@H](c3nc4cc(Cl)ccc4[nH]3)C2)c1 [Compound 1838, (R)-5-chloro-2-(1-(3,5-dichlorobenzyl)piperidin-3-yl)-1H-benzo[d]imidazole] | > 10 µM | – | 8.57 µM |
| CC(Cc1nc2ccccc2[nH]1)NCc1cc(Cl)cc(Cl)c1 (stereo not drawn) [Compound 1819, [1-(1H-1,3-benzodiazol-2-yl)propan-2-yl][(3,5-dichlorophenyl)methyl]amine] | 7.23 µM | – | 8.9 µM |
| Clc1ccc(CN[C@H]2CCN(c3nc4ccc(Cl)nc4[nH]3)C2)c(Cl)c1 [Compound 1846, (3S)-1-{5-chloro-3H-imidazo[4,5-b]pyridin-2-yl}-N-[(2,4-dichlorophenyl)methyl]pyrrolidin-3-amine] | 1.64 µM | – | 11 µM |
| O=C(NCCc1ccc(Cl)cc1Cl)OCc1nc2ccccc2[nH]1 [Compound 1739, [2-(2,4-Dichloro-phenyl)-ethyl]-carbamic acid 1H-benzoimidazol-2-ylmethyl ester] | 1.45 µM | – | > 10 µM |
| CC(C)[C@@H](Cc1nc2ccc(Cl)cc2[nH]1)NCc1cc(Cl)cc(Cl)c1 [Compound 1828, [(2R)-1-(6-chloro-1H-1,3-benzodiazol-2-yl)-3-methylbutan-2-yl][(3,5-dichlorophenyl)methyl]amine] | > 10 µM | – | 7.41 µM |
| C[C@H](Cc1nc2ccc(Cl)cc2[nH]1)NCc1cc(Cl)cc(Cl)c1 [Compound 1806, [(2R)-1-(6-chloro-1H-1,3-benzodiazol-2-yl)propan-2-yl][(3,5-dichlorophenyl)methyl]amine] | 7.63 µM and 9.88 µM | – | 3.33 µM |
